{"source": "patent US20240009172A1", "about": "“COMPOSTIONS AND METHODS FOR TREATING PROSTATE CANCER” (The Regents of the University of Michigan, priority 2022, published 2024)", "key": {"[1]": {"test_system": "metastatic, castration-resistant prostate cancer", "experiment": "Enzalutamide treatment of WCDT patients with matched biopsies: PSA response and time on treatment", "format": "in vivo, human", "parameters": "PSA Change at 12 weeks: unit not given here", "description": "(§1) Methods for tissue collection have been described previously 48.\nBy examining the Stand Up to Cancer Foundation/Prostate Cancer Foundation West Coast Dream Team (WCDT) prospective cohort, 21 patients with CRPC who underwent a metastatic tumor biopsy prior to enza and a repeat biopsy at the time of progression and whose tumor cells underwent RNA-sequencing after laser capture microdissection were identified. All progression biopsies were performed prior to discontinuing enza, enabling one to identify resistance mechanisms induced by continued enza treatment.\nBone was the most common site for both pre-treatment and progression biopsies. Eighteen of 21 patients had the same tissue type biopsied at progression. In eight patients, the exact same lesion was biopsied at baseline and progression (FIG. 1B, Table 3). The median time on enza treatment was 226 days."}, "[2]": {"test_system": "CRPC tumor biopsy transcriptome", "experiment": "RNA-sequencing differential gene expression (DESeq2), progression versus baseline in converters", "parameters": "species or system human", "details": "progression vs baseline samples from the three converters", "description": "as §1\nCore biopsy samples were flash frozen in Optical Cutting Temperature (OCT) for gene expression analysis. Laser capture microdissection was performed on frozen sections to enrich for tumor content 49. Total RNA was isolated (Stratagene Absolutely RNA Nano Prep) (RIN>8) and amplified using NuGEN Ovation RNA seq System V2. Libraries were generated using NuGEN Ovation Ultralow System V2 for Illumina sequencing. RNA seq was performed on the Illumina NextSeq 500, PE75 with at least 100M read pairs. The raw fastq files were first quality checked using FastQC (version 0.11.8) software (http://www.bioinformatics.bbsrc.ac.uk/projects/fastqc/). Fastq files were aligned to hg38 human reference genome and per-gene counts and transcripts per million (TPM) quantified by RSEM 50 (version 1.3.1) based on the gene annotation gencode.v28.annotation.gtf.\nDifferential expression gene, pathway, and master regulator analysis Differential gene expression analysis was performed using DESeq2 (version 1.22.2). Gene expression differences were considered significant if passing the following criteria: adjusted P-value <0.05, absolute fold change >1.5. For the converter vs non-converter baseline sample comparison, we used the adjusted P-value <0.1. […]"}, "CRPC tumors": {"test_system": "CRPC tumors", "experiment": "Aggarwal cluster designation and Labrecque classification of progression tumors (lineage plasticity)", "parameters": "species or system human", "details": "3/21 progression tumors (Aggarwal cluster 2, DNPC by Labrecque)", "description": "The unsupervised analysis from Aggarwal, et al. 25 identified five clusters using 119 samples. That study identified 528 genes that were the most differentially expressed between the clusters. Using that gene list, cluster assignments for new samples included in this matched biopsy cohort were determined without replicating the unsupervised analysis. First, the sample batch effect between the samples from the previous study and those from the current study was addressed with exponential normalization on the expression data of all samples—old and new. Exponential normalization is a per-sample operation that fits the expression of all genes to a unit exponential distribution. […]\nTo determine the Labrecque classification, a 26 gene signature used previously to define five phenotypic categories of CRPC 24 was applied: AR-high prostate cancer (ARPC), amphicrine prostate cancer, AR-low prostate cancer (ARLPC), double-negative prostate cancer (DNPC), and neuroendocrine prostate cancer (NEPC) 24. […] Samples were assigned to the phenotype groups by clustering using Euclidean distance calculated by the dist function and visualization using classical multidimensional scaling (MDS) calculated with the cmdscale function in R using the log2(TPM+1) transformed expression profiles of the remaining 25 genes."}}}
{"smiles": "CNC(=O)c1ccc(N2C(=S)N(c3ccc(C#N)c(C(F)(F)F)c3)C(=O)C2(C)C)cc1F", "note": "[enzalutamide]", "values": [{"measurement": "median time on enza treatment", "setting": "[1]; 21 patients", "result": 226, "unit": "days"}, {"measurement": "Median time on enzalutamide, days (SD)", "setting": "[1]; Table 2, n = 21 patients", "result": 261, "unit": "days"}, {"measurement": "50% PSA response to enzalutamide", "setting": "[1]; number of patients, n = 21", "result": 7}, {"measurement": "PSA Change at 12 weeks", "setting": "[1]; patient DTB_024", "result": 75.05}, {"measurement": "PSA Change at 12 weeks", "setting": "[1]; patient DTB_060", "result": "−20.41"}, {"measurement": "PSA Change at 12 weeks", "setting": "[1]; patient DTB_063", "result": "−74.64"}, {"measurement": "PSA Change at 12 weeks", "setting": "[1]; patient DTB_073", "result": 156.81}, {"measurement": "PSA Change at 12 weeks", "setting": "[1]; patient DTB_080", "result": "−28.48"}, {"measurement": "PSA Change at 12 weeks", "setting": "[1]; patient DTB_089", "result": 181.18}, {"measurement": "PSA Change at 12 weeks", "setting": "[1]; patient DTB_098", "result": "−83.74"}, {"measurement": "PSA Change at 12 weeks", "setting": "[1]; patient DTB_102", "result": "−93.02"}, {"measurement": "PSA Change at 12 weeks", "setting": "[1]; patient DTB_111", "result": 113.99}, {"measurement": "PSA Change at 12 weeks", "setting": "[1]; patient DTB_127", "result": 169.29}, {"measurement": "PSA Change at 12 weeks", "setting": "[1]; patient DTB_135", "result": 164.26}, {"measurement": "PSA Change at 12 weeks", "setting": "[1]; patient DTB_137", "result": "−10.85"}, {"measurement": "PSA Change at 12 weeks", "setting": "[1]; patient DTB_141", "result": "−81.04"}, {"measurement": "PSA Change at 12 weeks", "setting": "[1]; patient DTB_149", "result": "−80.29"}, {"measurement": "PSA Change at 12 weeks", "setting": "[1]; patient DTB_167", "result": "−88.38"}, {"measurement": "PSA Change at 12 weeks", "setting": "[1]; patient DTB_176", "result": "−64.76"}, {"measurement": "PSA Change at 12 weeks", "setting": "[1]; patient DTB_194", "result": 100.36}, {"measurement": "PSA Change at 12 weeks", "setting": "[1]; patient DTB_210", "result": "−83.36"}, {"measurement": "PSA Change at 12 weeks", "setting": "[1]; patient DTB_232", "result": "−0.55"}, {"measurement": "PSA Change at 12 weeks", "setting": "[1]; patient DTB_265", "result": 5.84}, {"measurement": "expression of AR, AR target genes (KLK2, KLK3, TMPRSS2) and HOXB13", "setting": "[2]", "result": "markedly decreased expression"}, {"measurement": "enza-induced lineage plasticity and conversion to an AR-independent program, frequency of tumors", "setting": "CRPC tumors", "result": 14, "unit": "%"}]}
